Laboratory results: ChEMBL document CHEMBL4725372, “Rational Design of Suprastat: A Novel Selective Histone Deacetylase 6 Inhibitor with the Ability to Potentiate Immunotherapy in Melanoma Models” (J Med Chem, 2020)
The source made the active and inactive calls. No cut-off for these calls is given here.

Key:
HEK293 = assay: Selectivity index, ratio of IC50 for human HDAC6 expressed in HEK293/T17 cells (unknown origin) to human HDAC6 expressed in HEK293/T17 cells; type: cell-based
Mus musculus = assay: Immunomodulatory activity in C57BL/6 mouse harboring mouse SM1 cells assessed as increase in CD8+ central memory cells at 25 mg/kg, ip dosed 5 days per week by flow cytometry; type: functional, organism-based; settings: time 5.0 day/week
[1] = target: T1, Protein deacetylase HDAC6 (Homo sapiens) (UniProt Q9UBN7); assay: Inhibition of human HDAC6 in human WM164 cells increase in acetylated alpha-tubulin levels at 0.1 to 10 uM by immunoblot analysis; type: cell-based; settings: dose microM 0.1-10
T1 sequence (whole entry): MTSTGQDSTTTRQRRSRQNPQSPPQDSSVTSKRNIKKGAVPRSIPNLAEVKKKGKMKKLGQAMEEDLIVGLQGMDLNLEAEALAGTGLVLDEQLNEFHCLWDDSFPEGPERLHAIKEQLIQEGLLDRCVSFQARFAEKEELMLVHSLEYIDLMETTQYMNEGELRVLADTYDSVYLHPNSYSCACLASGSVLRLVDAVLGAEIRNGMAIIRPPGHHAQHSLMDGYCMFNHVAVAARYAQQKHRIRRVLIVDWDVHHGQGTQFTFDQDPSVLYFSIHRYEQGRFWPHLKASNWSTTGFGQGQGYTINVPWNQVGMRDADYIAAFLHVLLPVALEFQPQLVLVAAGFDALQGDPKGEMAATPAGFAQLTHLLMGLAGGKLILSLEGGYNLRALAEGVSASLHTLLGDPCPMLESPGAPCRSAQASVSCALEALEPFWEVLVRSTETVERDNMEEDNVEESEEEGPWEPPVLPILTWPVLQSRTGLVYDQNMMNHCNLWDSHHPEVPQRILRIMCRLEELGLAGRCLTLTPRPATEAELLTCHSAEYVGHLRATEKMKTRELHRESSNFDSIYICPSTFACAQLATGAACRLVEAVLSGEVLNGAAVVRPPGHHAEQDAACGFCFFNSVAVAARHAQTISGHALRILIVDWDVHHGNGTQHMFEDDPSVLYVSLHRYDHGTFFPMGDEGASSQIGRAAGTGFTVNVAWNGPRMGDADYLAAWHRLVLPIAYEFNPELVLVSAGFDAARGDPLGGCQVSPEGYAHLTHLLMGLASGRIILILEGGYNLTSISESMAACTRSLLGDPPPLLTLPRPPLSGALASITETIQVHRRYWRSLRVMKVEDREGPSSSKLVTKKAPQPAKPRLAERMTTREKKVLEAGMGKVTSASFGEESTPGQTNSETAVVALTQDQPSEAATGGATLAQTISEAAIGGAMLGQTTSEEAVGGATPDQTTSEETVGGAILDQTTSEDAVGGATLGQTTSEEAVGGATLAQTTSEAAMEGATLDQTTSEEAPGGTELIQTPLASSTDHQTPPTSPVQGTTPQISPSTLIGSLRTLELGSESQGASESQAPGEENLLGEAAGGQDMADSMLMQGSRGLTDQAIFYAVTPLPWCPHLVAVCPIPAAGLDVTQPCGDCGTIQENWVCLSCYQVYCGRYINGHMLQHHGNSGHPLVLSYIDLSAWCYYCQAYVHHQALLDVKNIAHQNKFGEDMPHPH

inhibition [1]: Dose-dependent effect
Compound: NCc1ccc(NC(=O)N(CCCCO)Cc2ccc(C(=O)NO)cc2)cc1
Ratio IC50 (HEK293): 1 | Activity (Mus musculus): Active
